From patent publication US8912181B2 (Taiho Pharmaceutical Co., Ltd., priority 2011, dated 2014)

Key:
SK-BR-3 cells = experiment: Determination of cell growth inhibition (crystal violet staining method); format: cell-based; settings: Homo sapiens; breast cancer cells SK-BR-3, 72 hours culture with test substance
In short: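 SK-BR-3 cells seeded 5,000/well, cultured 24 h at 37 °C, then exposed to compound for 72 h. Cells fixed with glutaraldehyde, stained with 0.05% crystal violet, eluted and read at 540 nm; percent growth inhibition calculated versus untreated wells.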

[1] = target: human HSP90 alpha protein (N-terminal, amino acids 2 to 236) (Homo sapiens (Human), UniProt P07900); experiment: Determination of HSP90-binding activity (AlphaScreen competitive assay with biotinylated geldanamycin); settings: inhibition of binding of biotinylated geldanamycin to purified HSP90 N-terminal protein, read-out: HSP-binding activity IC50
In short: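 His-tagged N-terminal construct (aa 2–236) expressed in E. coli and purified was preincubated with compound 2 h at room temperature, then biotinylated geldanamycin (40 nM/well) added for 1 h. AlphaScreen nickel-chelate acceptor/streptavidin donor beads, 1 h dark; percent inhibition calculated against no-compound signal.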

IC50 (SK-BR-3 cells) [nM]	IC50 [1] [nM]	Structure (SMILES)
60	110	Cn1cc(-c2cn(-c3cccc4c(-c5ccc(C(N)=O)c(NC(C)(C)C)c5)ccnc34)cn2)cn1 [Example 130, 2-(Tert-butylamino)-4-(8-(4-(1-methyl-1H-pyrazol-4-yl)-1H-imidazol-1-yl)quinolin-4-yl)benzamide]
140	260	CC(C)(C)Nc1cc(-c2ccnc3c(-n4cnc(-c5cccnc5)c4)cccc23)ccc1C(N)=O [Example 131, 2-(Tert-butylamino)-4-(8-(4-(pyridin-3-yl)-1H-imidazol-1-yl)quinolin-4-yl)benzamide]
960	320	Cn1cc(-c2cn(-c3cccc4c(-c5ccc(C(N)=O)c(N)c5)ccnc34)cn2)cn1 [Example 132, 2-Amino-4-(8-(4-(1-methyl-1H-pyrazol-4-yl)-1H-imidazol-1-yl)quinolin-4-yl)benzamide]
1320	840	NC(=O)c1ccc(-c2ccnc3c(-n4cnc(-c5cccnc5)c4)cccc23)cc1N [Example 133]

The remaining lines, values behind:

Structure (SMILES)	IC50 (SK-BR-3 cells) [nM]	IC50 [1] [nM]
CCc1cc(-c2ccc(C(N)=O)c(N)c2)c2cccc(-n3cnc(-c4cccnc4)c3)c2n1 [Example 122, 2-Amino-4-(2-ethyl-8-(4-(pyridin-3-yl)-1H-imidazol-1-yl)quinolin-4-yl)benzamide]	10	90
CC(C)c1cc(-c2ccc(C(N)=O)c(N)c2)c2cccc(-n3cnc(-c4cccnc4)c3)c2n1 [Example 123, 2-Amino-4-(2-isopropyl-8-(4-(pyridin-3-yl)-1H-imidazol-1-yl)quinolin-4-yl)benzamide]	10	160
CCc1cc(-c2ccc(C(N)=O)c(N)c2)c2cccc(-n3cnc(-c4ccc(C)nc4)c3)c2n1 [Example 124, 2-Amino-4-(2-ethyl-8-(4-(6-methylpyridin-3-yl)-1H-imidazol-1-yl)quinolin-4-yl)benzamide]	20	130
Cc1ccc(-c2cn(-c3cccc4c(-c5ccc(C(N)=O)c(N)c5)cc(C(C)C)nc34)cn2)cn1 [Example 125, 2-Amino-4-(2-isopropyl-8-(4-(6-methylpyridin-3-yl)-1H-imidazol-1-yl)quinolin-4-yl)benzamide]	10	160
CC(C)(C)Nc1cc(-c2nccc3c(-c4cnc5ccccc5c4)cccc23)ccc1C(N)=O [Example 126, 2-(Tert-butylamino)-4-(5-(quinolin-3-yl)isoquinolin-1-yl)benzamide]	350	1530
CC(C)(C)Nc1cc(-c2nccc3c(-n4cnc(-c5cccnc5)c4)cccc23)ccc1C(N)=O [Example 127]	50	210
Cn1cc(-c2cn(-c3cccc4c(-c5ccc(C(N)=O)c(N)c5)nccc34)cn2)cn1 [Example 128, 2-Amino-4-(5-(4-(1-methyl-1H-pyrazol-4-yl)-1H-imidazol-1-yl)isoquinolin-1-yl)benzamide]	1060	310
